Marks after values point to notes of the source that are not given here.
Columns and labels:
[1] = Pharmacokinetics from capillary blood collected with Mitra VAMS (vMPA, vMPAG); assay type: in vivo, human
Experimental: (§1) The AUC0–4, Tmax, and Cmax parameters were calculated using the R (version 4.5.1) package software (R Core Team, 2025), supported by RStudio (version 2025.05.1+513) from Posit PBC software (Boston, MA, USA). […] The vMPA and vMPAG capillary blood levels were corrected using formulas validated in our department (partially published by Kocur et al.) and expressed as estimated capillary plasma concentrations. […] Individual PK profiles for each patient included in the study are provided in the Supplementary File (Figures S4 and S5).
Subsequently, the tip (after at least 1 h of drying) was placed in an 1.5 mL Eppendorf-type test tube (Eppendorf AG, Hamburg, Germany) containing 150 μL of pure deionized water. Next, the test tube was shaken at room temperature for 1 h using the automatic rotary vortex. Subsequently, 10 μL of IS solution and 150 μL of the precipitation mixture were added. The sample was then processed as described in Section 4.3.4. Sample processing was carried out at the Department of Drug Chemistry, Pharmaceutical and Biomedical Analysis, Medical University of Warsaw, Poland [21].
(§2) From each patient (if they consented to all sampling types), four samples were collected simultaneously at all defined time points of the dynamic PK profile (0, 0.5, 1, 2, and 4 h after drug administration). Whole blood was collected using standard venipuncture by a phlebotomist into a K3-EDTA test tube (Sarstedt, Nümbrecht, Germany). Plasma for analytical determination was obtained by centrifuging a portion of the whole blood and stored at −40 °C until assay. At the same time, 10 µL capillary blood samples were collected from a finger prick using the Mitra™ device (VAMS samples were stored in light-protected aluminum zip bags with desiccant at room temperature).

[2] = Pharmacokinetics from total plasma levels (tMPA, tMPAG), LC-MS/MS; assay type: in vivo, human; conditions: total plasma level
Experimental: as §1
Briefly, 50 μL of plasma was diluted with 90 μL of deionized water, and 10 μL of IS (d3-MPA) was added. Next, 400 μL of the precipitation mixture (a 0.1 M aqueous zinc sulfate solution and acetonitrile, 50:50 (v/v)) was added. The sample was then shaken for 10 min at room temperature using an automatic rotary vortex (Ohaus, Parsippany, NJ, USA) and centrifuged for 10 min at 13,500× g at 4 °C thereafter. The supernatant was transferred into chromatographic vials and analyzed using LC-MS/MS. Sample processing was performed at the Department of Drug Chemistry, Pharmaceutical and Biomedical Analysis, Medical University of Warsaw, Poland.
as §2

[3] = Pharmacokinetics from liquid (wet) saliva collected with Salivette (sMPA, sMPAG); assay type: in vivo, human
Experimental: as §1
The concentrations of sMPA and sMPAG in saliva were determined using a previously described LC-MS/MS method. Briefly, 100 µL of saliva was used for analysis. […] Samples were vortexed and evaporated to dryness. The dry residues were reconstituted in 100 μL of a mobile phase consisting of a 1:4 (v/v) mixture of methanol and water, both of which contained 0.1% formic acid. After double centrifugation, the samples were analyzed using a Shimadzu Ultra-Performance Liquid Chromatography (UPLC) system (Shimadzu Co., Kyoto, Japan) coupled with a triple quadrupole mass spectrometer (LCMS-8030; Simadzu Co., Kyoto, Japan). The method was linear over the concentration range of 2–500 μg/L for both sMPA and sMPAG. This part of the work was carried out with the support of the Centre of Innovative Pharmaceutical Technology, Poznan University of Medical Sciences (Poznan, Poland).
(§3) Additionally, the unstimulated saliva samples were simultaneously collected using the Salivette® device (Sarstedt, Nümbrecht, Germany) and Mitra™ 20 µL microsampling tips (Neoteryx/Trajan, Torrance, CA, USA (all saliva samples simultaneously to plasma and capillary blood sampling: 0, 0.5, 1, 2, and 4 h after drug administration). Patients had not eaten for at least 30 min before saliva collection, and their mouths were rinsed with water. The study was conducted in accordance with the Declaration of Helsinki and the International Council for Harmonization Guideline for Good Clinical Practice. The protocol was approved by the Bioethics Committee of the Children’s Memorial Health Institute, Warsaw, Poland (approval No. 15/KBE/2023, with subsequent amendments). Written informed consent was obtained from all participants and their legal guardians.

[4] = Stability of analytes in dried saliva Mitra VAMS tips; assay type: physicochemical; conditions: room temperature (with daily light exposure), n=6
Experimental: Stability testing, a crucial component of method development and validation, was conducted through various experiments, including storage stability in the autosampler and stability of analytes in VAMS tips under different stress conditions. Analyte stability is deemed acceptable if the differences stay within the nominal range of ±15%. Additionally, the reproducibility of the injection was assessed during autosampler stability testing.

[5] = Pharmacokinetics from dried saliva collected with Mitra VAMS (vsMPA, vsMPAG); assay type: in vivo, human
Experimental: as §1
Samples were sonicated (36 °C, 30 min), vortexed (15 min), and frozen (−20 °C, 15 min). After centrifugation (10 min, 25,155× g), 350 µL of supernatant was transferred to a total recovery borosilicate vial (Finneran, Vineland, NJ, USA) and evaporated to dryness under a stream of nitrogen (40 °C) using Ultravap® Levante (Porvair, Hampshire, Great Britain). The residue was reconstituted in 150 µL of mobile phase A, filtered in a Verex™ vial, and 5 µL was injected into the LC–MS/MS system. Analyses were performed at the Department of Drug Chemistry, Pharmaceutical and Biomedical Analysis, Medical University of Warsaw, Poland.
as §3

[6] = 0 h (pre-dose), n = 20, mean ± SD
[7] = 0.5 h post-dose, n = 20, mean ± SD
[8] = 1 h post-dose, n = 20, mean ± SD
[9] = 2 h post-dose, n = 20, mean ± SD
[10] = 4 h post-dose, n = 20, mean ± SD
[11] = normalized to MMF dose, n = 20, mean (range)
[12] = pediatric renal transplant recipients (n = 20) on MMF, mean (range)
[13] = wet saliva, pediatric renal transplant recipients (n = 20) on MMF, mean (range)
[14] = dried saliva (Mitra VAMS), pediatric renal transplant recipients (n = 20) on MMF, mean (range)

COc1c(C)c2c(c(O[C@@H]3O[C@H](C(=O)O)[C@@H](O)[C@H](O)[C@H]3O)c1C/C=C(\C)CCC(=O)O)C(=O)OC2 [MPAG, mycophenolic acid glucuronide]
C0 concentration [1, 6]: 22481 ± 10350 ng/mL
C0.5 concentration [1, 7]: 34340 ± 14354 ng/mL
C1 concentration [1, 8]: 44.003 ± 20.520 mg/L
C2 concentration [1, 9]: 34.039 ± 12.356 mg/L
C4 concentration [1, 10]: 25.381 ± 11.908 mg/L
AUC(0–4) ([1]; corrected to estimated capillary plasma concentration, n = 20, mean (range)): 133000 ng·h/mL
Cmax ([1]; corrected to estimated capillary plasma concentration, pediatric renal transplant recipients (n = 20) on MMF, mean (range)): 47.73 (19.80–110.76) mg/L
AUC(0–4) Normalized to Drug Dose [1, 11]: 361.35 (100.49–1064.33) ^d mg × h/mL × g
Tmax [1, 12]: 1.38 (0.50–2.00) h
C0 concentration [2, 6]: 23805 ± 12320 ng/mL
C0.5 concentration [2, 7]: 37800 ± 17081 ng/mL
C1 concentration [2, 8]: 48.647 ± 22.134 mg/L
C2 concentration [2, 9]: 34.258 ± 13.977 mg/L
C4 concentration [2, 10]: 27.075 ± 12.413 mg/L
AUC(0–4) Normalized to Drug Dose [2, 11]: 384.94 (106.81–1050.08) ^d mg × h/mL × g
Cmax ([2]; pediatric renal transplant recipients (n = 20) on MMF (CellCept), steady state, 0–4 h post-dose, mean (range)): 49.54 (19.24–109.28) mg/L
AUC(0–4) [2, 12]: 144000 ng·h/mL
Tmax [2, 12]: 1.33 (0.50–2.00) h
Cmax ([3]; wet saliva (unstimulated, Salivette), pediatric renal transplant recipients (n = 20) on MMF, 0–4 h post-dose, mean (range)): 73.74 (22.00–146.00) µg/L
C0 concentration ([3]; wet saliva, 0 h (pre-dose), n = 20, mean ± SD): 19.135 ± 12.712 ng/mL
C0.5 concentration ([3]; wet saliva, 0.5 h post-dose, n = 20, mean ± SD): 39.659 ± 26.611 ng/mL
C1 concentration ([3]; wet saliva, 1 h post-dose, n = 20, mean ± SD): 70.173 ± 44.943 µg/L
C2 concentration ([3]; wet saliva, 2 h post-dose, n = 20, mean ± SD): 39.371 ± 25.210 µg/L
C4 concentration ([3]; wet saliva, 4 h post-dose, n = 20, mean ± SD): 22.417 ± 15.097 µg/L
AUC(0–4) Normalized to Drug Dose ([3]; wet saliva, normalized to MMF dose, n = 20, mean (range)): 352.10 (119.88–857.42) ^c µg × h/mL × g
AUC(0–4) [3, 13]: 158 ng·h/mL
Tmax [3, 13]: 1.08 (0.50–2.00) h
stability, mean recovery ([4]; HQC, 1 week): 96.66%
stability, mean recovery ([4]; HQC, 2 weeks): 94.51%
stability, mean recovery ([4]; HQC, 24 hours): 100.16%
stability, mean recovery ([4]; HQC, 3 days): 98.94%
stability, mean recovery ([4]; LQC, 1 week): 99.67%
stability, mean recovery ([4]; LQC, 2 weeks): 97.25%
stability, mean recovery ([4]; LQC, 24 hours): 103.15%
stability, mean recovery ([4]; LQC, 3 days): 100.46%
Cmax ([5]; dried saliva (Mitra VAMS 20 µL), pediatric renal transplant recipients (n = 20) on MMF, 0–4 h post-dose, mean (range)): 70.30 (19.04–146.54) µg/L
C0 concentration ([5]; dried saliva (Mitra VAMS), 0 h (pre-dose), n = 20, mean ± SD): 17.834 ± 12.122 ng/mL
C0.5 concentration ([5]; dried saliva (Mitra VAMS), 0.5 h post-dose, n = 20, mean ± SD): 37.704 ± 24.598 ng/mL
C1 concentration ([5]; dried saliva (Mitra VAMS), 1 h post-dose, n = 20, mean ± SD): 67.422 ± 44.462 µg/L
C2 concentration ([5]; dried saliva (Mitra VAMS), 2 h post-dose, n = 20, mean ± SD): 39.258 ± 25.317 µg/L
C4 concentration ([5]; dried saliva (Mitra VAMS), 4 h post-dose, n = 20, mean ± SD): 19.762 ± 13.638 µg/L
AUC(0–4) Normalized to Drug Dose ([5]; dried saliva (Mitra VAMS), normalized to MMF dose, n = 20, mean (range)): 335.45 (115.15–902.00) ^c µg × h/mL × g
AUC(0–4) [5, 14]: 145 ng·h/mL
Tmax [5, 14]: 1.03 (0.50–2.00) h
